Measurements published in paper PMC6687188, “Novel lactate dehydrogenase inhibitors with in vivo efficacy against Cryptosporidium parvum” (PLoS Pathogens, 2019).

target: recombinant CpLDH protein (Cryptosporidium parvum, UniProt Q9GT92, F198L/K295E/R251K); conditions: not given

Row | SMILES | MEAN CpLDH INHIBITION (%)
1 | C[C@@H](N)C(=O)NC(CO)C(O)C(N)C=O.Cl (some centres unmarked) [NSC278619] | -43.32%
2 | Cc1cc(N(CCOS(C)(=O)=O)CCOS(C)(=O)=O)ccc1C=Nc1ccc(-c2csc(-c3ccccc3)n2)c(Cl)c1 [NSC281613] | -15.80%
3 | C=C1C(=O)OC2C1CC1OC2C(C)CCC/C(C)=C\CCC1(C)O (centres unmarked) [NSC282752] | -63.64%
4 | CCCCCCCCCCCCCCCCCCOP(=O)([O-])OCC[N+](C)(C)C [NSC282880] | -0.05%
5 | CN(CO)c1nc(N(C)CO)nc(N(C)CO)n1 [NSC283162] | -65.77%
6 | C=C(NC(=O)C(=C)NC(=O)c1csc(C2=N[C@@H]3c4csc(n4)[C@H]4NC(=O)c5csc(n5)[C@H]([C@](C)(O)[C@@H](C)O)NC(=O)[C@H]5CSC(=N5)/C(=C/C)NC(=O)[C@H]([C@@H](C)O)NC(=O)c5csc(n5)[C@]3(CC2)NC(=O)[C@H](C)NC(=O)C(=C)NC(=O)C(=C)NC(=O)[C@H](C(C)C)N[C@@H]2C=Cc3c([C@H](C)O)cc(nc3[C@H]2O)C(=O)O[C@@H]4C)n1)C(N)=O [NSC285116] | -2.26%
7 | COc1cc2c(cc1O)N=CC1CCC(O)N1C2=O (centres unmarked) [NSC285223] | -56.39%
8 | CCN(CC)CCNC(=O)c1nn(-c2ccc(Cl)cc2)c2c1CCc1cc(OC)ccc1-2 [NSC288010] | -45.22%
9 | C[C@]12CC[C@H](OC(=O)Cc3ccc(N(CCCl)CCCl)cc3)C[C@@H]1CC[C@@H]1[C@@H]2CC[C@]2(C)NC(=O)CC[C@@H]12 [NSC290205] | -205.36%
10 | O=C1C2=Nc3ccccc3C(O)N2c2ccccc21 (centres unmarked) [NSC292147] | -13.84%
11 | CO[C@@H]1C[C@@H](C[C@H]2CC[C@H](C)[C@H]([C@@H](C)C(=O)[O-])O2)O[C@]2(O[C@](C)([C@H]3CC[C@@](C)([C@@H]4O[C@@H]([C@H]5O[C@@](O)(CO)[C@H](C)C[C@@H]5C)C[C@@H]4C)O3)C[C@H]2C)[C@@H]1C.[Na+] [NSC292567] | -134.14%
12 | C=C1C(=O)O[C@H]2/C=C(/CO)[C@H](OC(C)=O)C[C@H](O)/C(C)=C\[C@H](OC(=O)[C@@H](C)CC)[C@H]12 [NSC292663] | -63.04%
13 | CCN(CC)CCOC(=O)Cc1cccc2c(=O)cc(-c3ccccc3)oc12 [NSC293015] | -3.81%
14 | O=C1Oc2ccccc2C(=O)/C1=C1\C=C(c2ccccc2)SS1 [NSC293927] | -15.46%
15 | CC(C)C1=C(O)C2=C(C(=O)C1=O)[C@@]1(C)CCCC(C)(C)[C@@H]1C[C@H]2O [NSC294577] | -16.31%
16 | O=C1Nc2ccc(Br)cc2/C1=C/C(=O)c1ccccc1 [NSC294961] | -25.63%
17 | CC1(O)C=CC(=O)C=C1 [NSC295156] | -1.00%
18 | O=C1c2ccccc2C(=O)c2c(NCCNCCO)ccc(O)c21 [NSC299187] | -23.00%
19 | COc1cc2oc(=O)cc(C)c2cc1[N+](=O)[O-] [NSC299879] | -32.05%
20 | COc1ccc(-c2csc(=[N+]3CCCCC3)s2)cc1 [NSC302358] | 0.36%
21 | C=C1C(=O)C2=CC1CCC(=O)C1(C)CCC(OC(C)=O)C(C)(C)C1CC2O (centres unmarked) [NSC302979] | -1.17%
22 | CCC12C[N+]3([O-])CCc4c([nH]c5ccccc45)C(C(=O)OC)(c4cc5c(cc4OC)N(C)C4C(O)(C(=O)OC)C(OC(C)=O)C6(CC)C=CCN7CCC54C76)CC(C3)C1O2 (centres unmarked) [NSC304421] | -126.27%

Row | SMILES | MEAN CpLDH INHIBITION (%)
23 | C=C1[C@@H](C)[C@H]2[C@H](Cc3ccccc3)NC(=O)C23[C@H](OC(C)=O)/C=C/[C@@](C)(O)C[C@@H](C)C/C=C/[C@H]3[C@@H]1O (some centres unmarked) [NSC305222] | -217.96%
24 | Nc1nc(N)c2cc(Sc3cccc(C(F)(F)F)c3)ccc2n1 [NSC305782] | -11.03%
25 | CC(C)(C)NCCC(O)c1cc(C(F)(F)F)nc2c(C(F)(F)F)cccc12.O=P(O)(O)O (centres unmarked) [NSC305819] | -15.30%
26 | CC1CCC2(OC1)OC1CC3C4CC=C5CC(OC6OC(CO)C(OC7OC(C)C(OC8OC(C)C(O)C(O)C8O)C(O)C7O)C(O)C6OC6OC(C)C(O)C(O)C6O)CCC5(C)C4CCC3(C)C1C2C (centres unmarked) [NSC306864] | -7.27%
27 | O=NN(CCCl)C(=O)NCc1ccc[n+]([O-])c1 [NSC307454] | -54.21%
28 | C=C(C)[C@@H]1CCc2c(O)c(O)c(=O)cc(C)c2C1 [NSC310618] | -54.97%
29 | CC(=O)[O-].Cc1c2cc[n+](CCN3CCCCC3)cc2c(C)c2c1[nH]c1ccc(O)cc12 [NSC311153] | -30.69%
30 | CCP(CC)CC.[Au+].[Cl-] [NSC313981] | -27.27%
31 | COc1cc2c3c(n(C)c(=O)c2cc1OC)-c1cc2c(cc1C3=O)OCO2 [NSC314622] | -4.47%
32 | O=C1c2ccccc2C(=O)c2c(O)c(NCCNCCO)cc(O)c21 [NSC316157] | -4.71%
33 | O=C(N=Nc1c(O)[nH]c2c(Cl)cc(Cl)cc12)c1ccccc1O [NSC320864] | -26.08%
34 | COc1ccc2c(c1[N+](=O)[O-])CC[C@@H]1[C@@H]2CC[C@]2(C)C(=O)CC[C@@H]12 [NSC321803] | -29.51%
35 | Br.CCCCCC(CN1CCOCC1)C(=O)/C=C/c1ccccc1 (centres unmarked) [NSC322069] | -28.89%
36 | C/C(=N\N=C(/[Se])N1CC2CCC(CC2)C1)c1ccccn1 [NSC323241] | -23.75%
37 | CCCCS(=N)(=O)CCC(N)C(=O)O (centres unmarked) [NSC326231] | -24.75%
38 | Clc1cc2nc[nH]c2cc1Cl [NSC326397] | -5.75%
39 | CN(C)c1ccc(/C=N/N=C2\C(=O)Nc3c(Cl)cc(Cl)cc32)cc1 [NSC327697] | -11.09%
40 | CC1CCOC(=O)/C=C/C=C/C(=O)OC2CC3OC4C5OC5(C)C(O)CC4(COC(=O)C1O)C2(C)C31CO1 (centres unmarked) [NSC328166] | -4.71%
41 | CC(=O)O[C@@H]1[C@@H](O)[C@H](O[C@H]2[C@H](OC(=O)[C@H]3CC[C@H]4[C@@H](C3)O[C@@]3(C[C@H](OC(=O)/C=C/c5ccccc5)[C@H](C)CO3)[C@]43CO3)O[C@H](C)[C@@H](O)[C@@H]2OC(C)=O)O[C@H](C)[C@H]1O [NSC328426] | -30.81%
42 | Cc1c(Cl)cccc1NC(=O)c1cccc([N+](=O)[O-])c1O [NSC328477] | -31.70%
43 | CC1(C)CC2=NO[Se]3=C2C(=NO3)C1 [NSC328587] | -53.59%
44 | CCOc1cccc(/C=N/N=C2\C(=O)Nc3c(Cl)cc(Cl)cc32)c1O [NSC329277] | -1.09%

Row | SMILES | MEAN CpLDH INHIBITION (%)
45 | O=C1Nc2c(Cl)cc(Cl)cc2/C1=N/N=C/c1ccco1 [NSC329279] | -39.07%
46 | C=C1C(=O)O[C@H]2/C=C(/C)C(=O)C[C@@H]3OC(C)(C)O[C@@]3(C)C[C@H](OC(=O)/C(C)=C\C)[C@H]12 [NSC329696] | -30.73%
47 | COC1CC(C)C(OC)c2cc(O)cc(c2O)NC(=O)/C(C)=C\C=C/C(C)C(OC(N)=O)/C(C)=C\C(C)C1OC (centres unmarked) [NSC330500] | -19.04%
48 | COc1cc2c(c(O)c1OC)-c1c(cc(OC)c(OC)c1OC)C[C@@H](C)[C@@H](C)C2 [NSC330515] | -43.86%
49 | COc1cc2c(c(OC)c1OC)-c1c(cc3c(c1OC)OCO3)CC(C)C(C)(O)C2OC(=O)c1ccccc1 (centres unmarked) [NSC330516] | -37.93%
50 | CC(=O)O[C@H]1C(=O)[C@@]2(C)[C@H]([C@H](OC(=O)c3ccccc3)[C@]3(O)C[C@H](O)C(C)=C1C3(C)C)[C@]1(OC(C)=O)CO[C@@H]1C[C@@H]2O [NSC330753] | -63.01%
51 | CCOC(=O)Nc1cc2c(c(N)n1)N=C(c1ccccc1)CN2 [NSC330770] | -9.40%
52 | CCN(CC)CCCC(C)NC(=O)c1ccc2c(c1)C(=O)c1ccccc1C2=O.Cl (centres unmarked) [NSC331757] | -61.61%
53 | CO[C@@H](/C(C)=C/C=C/C(C)=C/c1coc(C)n1)[C@@H](C)[C@@H]1C[C@H](O)[C@@]2(C)O[C@@H]2/C=C/[C@@H](C)[C@H]2C[C@H](CC(=O)O2)C[C@@H]2O[C@H]2C(=O)O1 [NSC332598] | -143.77%
54 | COC(=O)NC1C(C)OC(OC2C/C=C(/C)C3C=CC4C(OC5CC(OC6CCC(OC7CC(O)C(OC8CCC(O)C(C)O8)C(C)O7)C(C)O6)C(OC(C)=O)C(C)O5)C(C)CC(C)C4C3(C)/C(O)=C3/C(=O)OC4(CC(C=O)=CC(O)C4/C=C\2C)C3=O)CC1(C)[N+](=O)[O-] (centres unmarked) [NSC333856] | -2.71%
55 | Cc1c2ccnc(C(N)=O)c2c(C)c2c1[nH]c1ccccc12.Cl [NSC335142] | -27.72%
56 | O=C1NC(=S)NC(=O)C1C(=O)Nc1ccccc1 [NSC336628] | -66.49%
57 | O=C1c2ccccc2-c2c1c1ccccc1c(=O)n2Cc1ccccc1 [NSC337612] | -26.65%
58 | C(=N\NC1=NCCN1)/c1c2ccccc2c(/C=N/NC2=NCCN2)c2ccccc12 [NSC337766] | -53.76%
59 | CN(C)c1ccc2c(SCC(=O)OCC(=O)[C@@]3(O)CC[C@H]4[C@@H]5CCC6=CC(=O)C=C[C@]6(C)[C@H]5C(=O)C[C@@]43C)c3ccc(N(C)C)cc3nc2c1 [NSC337851] | -16.37%
60 | Oc1cc2c3c(c1)c1cc4c(cc1c[n+]3CC2)OCO4.[Cl-] [NSC338259] | -17.29%
61 | COc1nc(C(Cl)(Cl)Cl)c(Cl)c(OC)c1Cl [NSC338720] | 0.02%
62 | O=C(CCCN1CCC(C(O)c2ccc(F)cc2)CC1)c1ccc(F)cc1 (centres unmarked) [NSC343513] | -0.97%
63 | NP(=O)(Oc1c2occc2cc2ccc(=O)oc12)N(CCCl)CCCl (centres unmarked) [NSC345081] | -64.34%
64 | CC1Oc2cc3c(-c4c(O)cc(O)c5c(O)c6c(cc45)OC(C)C(C)C6=O)c(O)cc(O)c3c(O)c2C(=O)C1C (centres unmarked) [NSC345647] | -176.19%
65 | O=[Se]([O-])[O-].[Na+].[Na+] [NSC347466] | -3.84%
66 | O=C1N[C@@H]2C(=C[C@H](O)[C@@H](O)[C@H]2O)c2cc3c(cc21)OCO3 [NSC349155] | -5.62%

same assay, conditions: 20 μM compound; 10 mM pyruvate, 1 mM NADH; values below 0 = augmenters

Row | SMILES | MEAN CpLDH INHIBITION (%)
67 | Oc1cccc2cccnc12 [NSC285166] | -48.97%
68 | C/C(=N\NC(=S)N1CCC1)c1ccccn1 [NSC319726] | -58.85%
